Assay results published in patent US9221816B2, “2-oxo-2,3-dihydro-indoles for the treatment of CNS disorders” (Hoffmann-La Roche Inc., priority 2012, dated 2015).
Entries after “also recorded” stand apart in the source; their conditions may differ.

Experiments:
[1] = test system: L-687,414-induced hyperlocomotion; experiment: L-687,414-induced hyperlocomotion (Digiscan locomotor activity); assay type: in vivo, mouse; conditions: mice; for ID50 po: p.o. 15 min before s.c. 50 mg/kg L-687,414, dose producing 50% inhibition of hyperlocomotion; for Inhibition, ip: dose ip 30, at the same time as s.c. 50 mg/kg L-687,414, % inhibition of horizontal activity
Description: The authors described that hyperlocomotion induced by L-687,414 was inhibited by a series of known antipsychotic drugs. […] These findings predict antipsychotic activity for the present compounds, making them useful for the treatment of schizophrenia and other disorders as described above.
The described compounds of formula I and I-1 reduce L-687,414-induced hyperlocomotion. This was assessed by using a computerized Digiscan 16 Animal Activity Monitoring System (Omnitech Electronics, Columbus, Ohio) to quantify locomotor activity. Animals were kept under a 12 h light/dark cycle and experiments were performed during the light period. Each activity monitoring chamber consisted of a Plexiglas box (41×41×28 cm; W×L×H) with sawdust bedding on the floor surrounded by invisible horizontal and vertical infrared sensor beams. The test boxes were divided by a Plexiglas cross providing each mouse with 20×20 cm of moving space. Cages were connected to a Digiscan Analyzer linked to a computer that constantly collected the beam status information. Records of photocell beam interruptions for individual animals were taken every 5 min over the duration of the experimental session and the sum of the first 6 periods was used as the final parameter. Compounds were administered either p.o. 15 min before a s.c. injection of 50 mg/kg of L-687,414, or i.p. at the same time as a s.c. injection of 50 mg/kg of L-687,414. Mice were then transferred from their home cage to the recording chambers for a 15-min habituation phase allowing free exploration of the new environment. Horizontal activity was then recorded for a 30-min time period. The % inhibition of L-687,414-induced hyperlocomotion was calculated according to the equation: ((Veh+L-687,414 horizontal activity−drug+L-687,414 horizontal activity)/Veh+L-687,414 horizontal activity)×100
ID50 values, defined as doses of each compound producing 50% inhibition of L-687,414-induced hyperlocomotion, were calculated by linear regression analysis of a dose-response data using an Excel-based computer-fitting program.
As data was not presupposed to be normally distributed, groups treated with test compounds were statistically compared with the control (vehicle-treated) group using one-tailed Mann Whitney U tests. In statistics, the Mann-Whitney U test (also called the Mann-Whitney-Wilcoxon (MWW) or Wilcoxon rank-sum test) is a non-parametric statistical hypothesis test for assessing whether one of two samples of independent observations tends to have larger values than the other. It is one of the most well-known non-parametric significance tests. […] P values given in table 1 are one-tailed since only decreases in locomotion were expected and tested for (Mann, H. B., Whitney, D. R. (1947), “On a Test of Whether one of Two Random Variables is Stochastically Larger than the Other”, Annals of Mathematical Statistics, 18 (1), 50-60).

[2] = test system: behaviors of compound-treated mice; experiment: SmartCube behavioral signature, similarity to atypical antipsychotics; assay type: in vivo; conditions: for discrimination rate vs Clozapine / discrimination rate vs Olanzapine / discrimination rate vs Risperidone: SmartCube, i.p. 15 minutes before test, 0.70 or lower = similar; for SmartCube signature: i.p., mice, classification by similarity to drug classes
Source text: In addition to the reversal of L-687,414 induced hyperlocomotion experiment as described above, some compounds of the present invention have been tested in SmartCube®, an automated system in which the behaviors of compound-treated mice in response to multiple challenges are captured by digital video and analyzed with computer algorithms (Roberds et al., Frontiers in Neuroscience, 2011, Vol. 5, Art. 103, 1-4). In this way, the neuro-pharmacological effects of a test compound can be predicted by similarity to major classes of compounds, such as antipsychotics, anxiolytics and antidepressants.
SmartCube® was used to compare the behavioral signature of a test compound to a database of behavioral signatures obtained from a large set of clinically approved reference drugs, grouped per indications. In this way, the neuro-pharmacological effects of a test compound can be predicted by similarity to major classes of compounds, such as antipsychotics, anxiolytics and antidepressants. This approach is ideally suited to screen collections of existing drugs or drug candidates with previously unknown neuropharmacology, which could expedite the development of new and unexpected treatments for psychiatric disorders.
Some compounds of the present invention were injected i.p. at different doses 15 minutes before the test. At least 8 mice were used in each treatment group. Digital videos of the subjects were processed with computer vision algorithms to extract over 2000 dependent measures including frequency and duration of many different behavioral states. The results of the classifications are presented as bar charts for each dose (mg/kg), the Y-axis indicates the relative probability that the test compound will show efficacy in the specific CNS indication.
For comparison, the behavioral signature of the atypical antipsychotic risperidone is shown in FIG. 3 (for behavioral signatures of further atypical antipsychotic, e.g. clozapine, olanzapine, see also Roberds et al., Frontiers in Neuroscience, 2011, Vol. 5, Art. 103, 1-4). Compounds of the present invention show similar signatures to those of atypical antipsychotics. An independent analysis was performed on the unclassified data to determine the similarity of the example compounds to active doses of known atypical antipsychotics. For this analysis, we use discrimination rate as the measure of separability between the two drugs, i.e. one drug's “distinguishability” from another. A rate equal to 50% (or 0.5) corresponds to zero distinguishability. […] In most cases, the example compounds show a similarity to risperidone, clozapine and olanzapine with a discrimination rate of ≦0.70.

For CN1C(=O)C(C)(C)c2ccc(NC(=O)c3ccncc3F)cc21 [Example 29, 3-Fluoro-N-(1,3,3-trimethyl-2-oxoindolin-6-yl)isonicotinamide], the ID50 po [1] was 1.08 mg/kg, the “discrimination rate vs Clozapine” value [2] was 0.63 and the “discrimination rate vs Olanzapine” value [2] was 0.58. For the same molecule, the “discrimination rate vs Risperidone” value [2] was 0.56 and the SmartCube signature [2] was “similarity to atypical antipsychotics; also recorded: profile similar to that of atypical antipsychotics”.

For CC1(C)C(=O)N(C2CC2)c2cc(NC(=O)c3ccncc3Cl)ccc21 [Example 30, 3-Chloro-N-(1-cyclopropyl-3,3-dimethyl-2-oxoindolin-6-yl)isonicotinamide], the ID50 po [1] was 0.97 mg/kg, the “discrimination rate vs Clozapine” value [2] was 0.68 and the “discrimination rate vs Olanzapine” value [2] was 0.67. For the same molecule, the “discrimination rate vs Risperidone” value [2] was 0.72 and the SmartCube signature [2] was “similarity to atypical antipsychotics; also recorded: profile similar to that of atypical antipsychotics”.

In the case of Cc1cc(C(=O)Nc2ccc3c(c2)N(C2CC2)C(=O)C32CC2)ccn1 [Example 60, N-(1′-Cyclopropyl-2′-oxospiro[cyclopropane-1,3′-indoline]-6′-yl)-2-methylisonicotinamide], the “Inhibition, ip” value [1] is reported as 63.2%.

For CC1(C)C(=O)N(C2COC2)c2cc(NC(=O)c3ccncc3Cl)ccc21 [Example 62, 3-Chloro-N-(3,3-dimethyl-1-(oxetan-3-yl)-2-oxoindolin-6-yl)isonicotinamide], the “Inhibition, ip” value [1] was 61.7%.

CC1(C)C(=O)N(C2COC2)c2cc(NC(=O)c3cccnc3)ccc21 [Example 64, N-(3,3-Dimethyl-1-(oxetan-3-yl)-2-oxoindolin-6-yl)nicotinamide] was tested, and the “Inhibition, ip” value [1] was 65.9%.

With CC1(C)C(=O)N(CCCOC2CC2)c2cc(NC(=O)c3ccncc3F)ccc21 [Example 65, N-(1-(3-Cyclopropoxypropyl)-3,3-dimethyl-2-oxoindolin-6-yl)-3-fluoroisonicotinamide] the “Inhibition, ip” value [1] was 91.1%.

CC1(C)C(=O)N(CCO)c2cc(NC(=O)c3ccncc3F)ccc21 [Example 68, 3-Fluoro-N-(1-(2-hydroxyethyl)-3,3-dimethyl-2-oxoindolin-6-yl)isonicotinamide] was tested, and the “Inhibition, ip” value [1] was 89.1%.

For CC1(C)C(=O)N(CCCO)c2cc(NC(=O)c3ccncc3F)ccc21 [Example 69, 3-Fluoro-N-(1-(3-hydroxypropyl)-3,3-dimethyl-2-oxoindolin-6-yl)isonicotinamide], the “Inhibition, ip” value [1] was 82.4%.

For CC1(C)C(=O)Nc2cc(NC(=O)c3ccncc3F)ccc21 [Example 72, N-(3,3-Dimethyl-2-oxoindolin-6-yl)-3-fluoroisonicotinamide], the ID50 po [1] was 2.22 mg/kg.

In the case of CC1(C)C(=O)N(CCCO)c2cc(NC(=O)c3ccncc3Cl)ccc21 [Example 73, 3-Chloro-N-(1-(3-hydroxypropyl)-3,3-dimethyl-2-oxoindolin-6-yl)isonicotinamide], the “Inhibition, ip” value [1] is reported as 51.2%.

For CC1(C)C(=O)N(CC(F)(F)F)c2cc(NC(=O)c3ccncc3F)ccc21 [Example 74, N-(3,3-Dimethyl-2-oxo-1-(2,2,2-trifluoroethyl)indolin-6-yl)-3-fluoroisonicotinamide], the “Inhibition, ip” value [1] was 76.6%.

CC1(C)C(=O)N(C2CC2)c2cc(NC(=O)c3ccncc3)ncc21 [Example 79, N-(1-Cyclopropyl-3,3-dimethyl-2-oxo-2,3-dihydro-1H-pyrrolo[3,2-c]pyridin-6-yl)isonicotinamide] was tested, and the ID50 po [1] was 0.94 mg/kg.

In the case of Cc1cc(C(=O)Nc2cc3c(cn2)C(C)(C)C(=O)N3C2CC2)ccn1 [Example 81, N-(1-Cyclopropyl-3,3-dimethyl-2-oxo-2,3-dihydro-1H-pyrrolo[3,2-c]pyridin-6-yl)-2-methylisonicotinamide], the “Inhibition, ip” value [1] is reported as 53.1%.

For CC1(C)C(=O)N(C2CC2)c2cc(NC(=O)c3ccnc(Cl)c3)ncc21 [Example 83, 2-Chloro-N-(1-cyclopropyl-3,3-dimethyl-2-oxo-2,3-dihydro-1H-pyrrolo[3,2-c]pyridin-6-yl)isonicotinamide], the “Inhibition, ip” value [1] was 79.6%.

With CC1(C)C(=O)N(C2CC2)c2cc(NC(=O)c3ccno3)ncc21 [Example 85, N-(1-Cyclopropyl-3,3-dimethyl-2-oxo-2,3-dihydro-1H-pyrrolo[3,2-c]pyridin-6-yl)isoxazole-5-carboxamide] the “Inhibition, ip” value [1] was 74.9%.

For Cn1nccc1C(=O)Nc1cc2c(cn1)C(C)(C)C(=O)N2C1CC1 [Example 86, N-(1-Cyclopropyl-3,3-dimethyl-2-oxo-2,3-dihydro-1H-pyrrolo[3,2-c]pyridin-6-yl)-1-methyl-1H-pyrazole-5-carboxamide], the “Inhibition, ip” value [1] was 69%.

In the case of COc1ncc(C(=O)Nc2cc3c(cn2)C(C)(C)C(=O)N3C2CC2)cn1 [Example 88, N-(1-Cyclopropyl-3,3-dimethyl-2-oxo-2,3-dihydro-1H-pyrrolo[3,2-c]pyridin-6-yl)-2-methoxypyrimidine-5-carboxamide], the ID50 po [1] is reported as 6.11 mg/kg.
